Measured values published in patent publication US9017693B2, “Apoptotically active peptides” (Cytotools AG, priority 2001, dated 2015).
Non-standard residues stand in square brackets, D forms with d. No end group written: not given here.

Legend:
HUVEC [1] = test: Test system for apoptotically active peptides: TSP-1-induced apoptosis of cultivated HUVEC, DAPI dyeing; type: cell-based, human
Experimental: For the purposes of the disclosure, the term “apoptotically active” will mean that the addition of the respective substance to the test system shown in Examples 5 and 6 generates either a positive or negative inhibition index. Particularly endothelial cells, preferably especially HUVEC, are to this end cultivated in a medium which includes 1 μg TSP-1 per ml. The percentage apoptosis values of such positive control will then serve, as shown in the examples, for the calculation of the inhibition index for those substances which are used as potential inhibitors together with the inductor TSP-1 in parallel tests.
(§1) Cultivation of HUVEC takes place in gelatin-coated culture vessels at 37° C., 5% CO2 and water vapor saturated atmosphere. The culture medium is exchanged every two to three days; in case of confluence, the cells are passaged at a cleavage rate of from 1:3 to 1:5. HUVEC grow strictly contact-inhibited and form unilaminar cell bed having the typical cobble-stone morphology. In case of confluence, the cultures reach cell densities of 4-9×10^4 cells/cm^2. For apoptosis examinations, HUVEC cultures of passages 1-4 are exclusively employed.
(§2) The culture supernatant of a Petri dish is sucked off, the cell bed is fixed on ice for 15 minutes with 1 ml formaldehyde solution, is washed twice with 2 ml PBS, is added 0.5 ml DAPI solution for 15 minutes, is washed with PBS and evaluated under the fluorescence microscope. A UV filter set and a 20× and a 40× objective are used. 500 to 1000 cells are selected at random and the cells having apoptotic nuclei are counted.
(§3) The apoptosis index is calculated in accordance with the following formula: Apoptosis index [%]=number of apoptotic cells/total cell number×100 Flow Cytometry: Solutions: • PBS • Medium • Ethanol (reagent-grade) ice-cooled (−20° C.) • DAPI buffer • DAPI stock solution • DAPI dye solution Procedure:
The culture supernatant is sucked off and the cells are trypsinized without washing them with PBS. The cell suspension is received in medium, is counted, is centrifuged at 800×g for 5 minutes, the sediment is re-suspended in 0.5 ml IF and is dripped into 1.5 ml ice-cold ethanol. The suspension is stored overnight at […]. After renewed centrifugation and re-suspending of the sediment in 2 ml PBS, there follows a half-hour incubation at 37° C., further centrifugation, re-suspending of the sediment in 5 ml DAPI solution, and counting in the flow cytometer at a counting rate of 50 to 300 events per second. […] Caused by the decreasing absolute DNS amount per cell, apoptotic cells appear in a sub-G1 peak [Darzynklewicz Z. et al., Cytometry, 13, 795-808 (1992); Zamai L. et al., Cytometry, 14, 891-897 (1993)].
The cells were cultivated as described in Example 1. The cells are seeded in the corresponding culture vessels (e.g. 24-hole plate/0.5 ml per cavity) and, having obtained complete confluence, are employed for the test. The cells are provided with new medium: • (a) fresh culture medium [Base rate of apoptosis], • (b) fresh medium with 1 μg/ml TSP-1 [Apoptosis-induced substance; control], • (c) medium (b)+peptide of SEQ ID NO 1, 1 mM • (d) medium (b)+peptide of SEQ ID NO 2, 1 mM • (e) medium (b)+peptide of SEQ ID NO 3, 1 mM • (f) medium (b)+peptide of SEQ ID NO 4, 1 mM • (g) medium (b)+peptide of SEQ ID NO 7, 1 mM • (h) medium (b)+peptide of SEQ ID NO 8, 1 mM • (i) medium (b)+peptide of SEQ ID NO 9, 1 mM • (j) medium (b)+peptide of SEQ ID NO 10, 1 mM • (k) medium (b)+peptide of SEQ ID NO 11, 1 mM • (l) medium (b)+peptide of SEQ ID NO 12, 1 mM • (m) medium (b)+peptide of SEQ ID NO 13, 1 mM • (n) medium (b)+peptide of SEQ ID NO 14, 1 mM • (o) medium (b)+peptide of SEQ ID NO 15, 1 mM • (p) medium (b)+peptide of SEQ ID NO 16, 1 mM • (q) medium (b)+peptide of SEQ ID NO 17, 1 mM • (r) medium (b)+peptide of SEQ ID NO 18, 1 mM • (s) medium (b)+peptide of SEQ ID NO 19, 1 mM […]

HUVEC [2] = test: Induction of apoptosis at HUVEC with TSP-1; type: cell-based, human; conditions: confluent HUVEC, fresh medium + TSP-1 1 μg/ml; fresh medium alone 0.9 ± 0.1
Experimental: as §1, §2, §3
The cells are cultivated as described in Example 1. Having obtained complete confluence, the cells are used for the test. […]

[3] = lengthened peptide sequences, TSP-1 + peptide, tests as in Example 5, control 8.73 ± 0.43
[4] = lengthened peptide sequences, TSP-1 + peptide, tests as in Example 5, positive = substance inhibited
[5] = 1 μg/ml TSP-1 + peptide 1 mM, 24 hours, positive = substance inhibited, negative = substance induced apoptosis
[6] = medium with 1 μg/ml TSP-1 + peptide 1 mM, 24 hours, mean ± SD of three independent experiments, control 3.28 ± 0.55

Row | Substance | Apoptosis index [%] (HUVEC [1]; [3]) | Inhibition index [%] (HUVEC [1]; [4]) | Inhibition index [%] (HUVEC [1]; [5]) | Apoptosis index [%] (HUVEC [1]; [6]) | Apoptosis rate (%) after 24 h (HUVEC [2]) [%]
1 | K-R-A-Y-V-V-M-W-K-K (KRAYVVMWLL) [SEQ ID NO 5] | 0.37 ± 0.22 | +95.8 ± 2.6% |  |  | 
2 | K-R-E-Y-V-V-M-W-K-K (LREYVVMWKK) [SEQ ID NO 6] | 0.48 ± 0.22 | +94.5 ± 2.5% |  |  | 
3 | M-V-V-Y-F-R (MVVYFR) [SEQ ID NO 12] |  |  | −34.1 ± 6.2% | 4.40 ± 0.53 | 
4 | R-A-Y-V-V-A (RAYVVA) [SEQ ID NO 13] |  |  | −51.8 ± 6.0% | 4.98 ± 0.3 | 
5 | R-A-Y-V-V-M (RAYVVM) [SEQ ID NO 1] |  |  | +75.3 ± 7.5% | 0.83 ± 0.24 | 
6 | R-C-Y-V-V-M (RCYVVM) [SEQ ID NO 17] |  |  | −326.5 ± 3.6% | 13.97 ± 0.35 | 
7 | R-D-Y-V-V-M (RDYVVM) [SEQ ID NO 11] |  |  | +37.3 ± 14.0% | 2.12 ± 0.47 | 
8 | R-E-Y-V-V-M (REYVVM) [SEQ ID NO 4] |  |  | +69.0 ± 8.9% | 1.04 ± 0.30 | 
9 | R-G-Y-V-V-M (RGYVVM) [SEQ ID NO 7] |  |  | +46.4 ± 11.1% | 1.83 ± 0.37 | 
10 | R-L-Y-V-V-M (RLYVVM) [SEQ ID NO 14] |  |  | −95.4 ± 6.1% | 6.41 ± 0.63 | 
11 | R-M-Y-V-V-M (RMYVVM) [SEQ ID NO 8] |  |  | +44.2 ± 11.6% | 1.84 ± 0.39 | 
12 | R-N-Y-V-V-M (RNYVVM) [SEQ ID NO 10] |  |  | +39.5 ± 15.8% | 2.06 ± 0.53 | 
13 | R-P-Y-V-V-M (RPYVVM) [SEQ ID NO 15] |  |  | −72.8 ± 6.4% | 5.67 ± 0.54 | 
14 | R-S-Y-V-V-M (RSYVVM) [SEQ ID NO 16] |  |  | −108.4 ± 3.7% | 6.86 ± 0.37 | 
15 | R-T-Y-V-V-M (RTYVVM) [SEQ ID NO 9] |  |  | +44.5 ± 9.8% | 1.86 ± 0.36 | 
16 | R-W-Y-V-V-M (RWYVVM) [SEQ ID NO 2] |  |  | +61.9 ± 7.7% | 1.30 ± 0.26 | 
17 | R-Y-Y-V-V-M (RYYVVM) [SEQ ID NO 3] |  |  | +74.7 ± 5.0% | 0.85 ± 0.17 | 
18 | TSP-1: thrombospondin 1, apoptosis-inducing substance added at 1 μg/ml to HUVEC medium as inductor/control |  |  |  |  | 3.0 ± 0.4
19 | m-v-v-y-a-r ([dM][dV][dV][dY][dA][dR]) [SEQ ID NO 19] |  |  | −247.1 ± 5.4% | 11.4 ± 0.63 | 
20 | m-v-v-y-f-r ([dM][dV][dV][dY][dF][dR]) [SEQ ID NO 18] |  |  | −345.1 ± 5.1% | 14.6 ± 0.75 | 
